Results: patent US20130172246A1, “INSULIN GLARGINE VERSUS METFORMIN FOR THE FIRST-LINE TREATMENT OF EARLY TYPE-2 DIABETES” (priority 2011, published 2013)
Read-outs that look alike come from different tables or passages of the source.

Columns and labels:
[1] = Body weight, BMI, abdominal and hip measurement in the clinical trial
Description: (§2) • Checking the inclusion/exclusion criteria • Physical examination • Measuring body weight, waist/hip measurement, blood pressure, pulse • Recording the change in concomitant medication and concomitant conditions • Recording AEs and SAEs • Applying the CGMS for up to 72 h, briefing and training the patient • Randomization: • Group A: Titrating insulin glargine to target level of fasting plasma glucose (5.6 mmol/l (100 mg/dl)) • Briefing and training the patients in insulin use (Depending on the organization, training measures can be implemented during the overall visit 1 a-c.) • Group B: 500 mg of metformin tid • Pregnancy test, if applicable. • Laser Doppler measurement; only at center 01 and 02
(§3) • Recording the change in concomitant medication • Recording AEs and SAEs • Physical examination • Measuring body weight, waist/hip measurement, blood pressure, pulse • Applying the CGMS for up to 72 h, briefing and training the patient • Drug accountability/compliance (registering the used-up medication) • Laser Doppler measurement, only at center 01 and 02

type 2 diabetes patients [2] = assay: Parameters of beta-cell function (insulin, proinsulin, C-peptide, HOMA) fasting and 2 h after test meal; format: in vivo, human; settings: for ratio of proinsulin to C-peptide: after treatment, indicating improvement in beta-cell function; for Insulin-C-peptide ratio - change, 2 h after test meal / Insulin-C-peptide ratio - change, Fasting / Proinsulin-C-peptide ratio - change, 2 h after test meal / Proinsulin-C-peptide ratio - change, Fasting / HOMA - change / Insulin-proinsulin ratio - change, 2 h after test meal / Insulin-proinsulin ratio - change, Fasting / C-peptide - change, 2 h after test meal / C-peptide - change, Fasting / Insulin - change, 2 h after test meal / Insulin - change, Fasting / Proinsulin - change, 2 h after test meal / Proinsulin - change, Fasting / Insulin-C-peptide ratio - visit 8, 2 h after test meal / Insulin-C-peptide ratio - visit 8, Fasting / Proinsulin-C-peptide ratio - visit 8, 2 h after test meal / Proinsulin-C-peptide ratio - visit 8, Fasting / HOMA - visit 8 / Insulin-proinsulin ratio - visit 8, 2 h after test meal / Insulin-proinsulin ratio - visit 8, Fasting / C-peptide - visit 8, 2 h after test meal / C-peptide - visit 8, Fasting / Insulin - visit 8, 2 h after test meal / Insulin - visit 8, Fasting / Proinsulin - visit 8, 2 h after test meal / Proinsulin - visit 8, Fasting: per protocol; for Insulin-C-peptide ratio - change, 2 h after test meal / Insulin-C-peptide ratio - change, Fasting / Proinsulin-C-peptide ratio - change, 2 h after test meal / Proinsulin-C-peptide ratio - change, Fasting / HOMA - change / Insulin-proinsulin ratio - change, 2 h after test meal / Insulin-proinsulin ratio - change, Fasting / C-peptide - change, 2 h after test meal / C-peptide - change, Fasting / Insulin - change, 2 h after test meal / Insulin - change, Fasting / Proinsulin - change, 2 h after test meal / Proinsulin - change, Fasting: change visit 1 to visit 8; for Insulin-C-peptide ratio - change, 2 h after test meal / Insulin-C-peptide ratio - change, Fasting / Proinsulin-C-peptide ratio - change, 2 h after test meal / Proinsulin-C-peptide ratio - change, Fasting / Insulin-C-peptide ratio - visit 8, 2 h after test meal / Insulin-C-peptide ratio - visit 8, Fasting / Proinsulin-C-peptide ratio - visit 8, 2 h after test meal / Proinsulin-C-peptide ratio - visit 8, Fasting: mean; for HOMA - change / Insulin-proinsulin ratio - change, 2 h after test meal / Insulin-proinsulin ratio - change, Fasting / C-peptide - change, 2 h after test meal / C-peptide - change, Fasting / Insulin - change, 2 h after test meal / Insulin - change, Fasting / Proinsulin - change, 2 h after test meal / Proinsulin - change, Fasting / HOMA - visit 8 / Insulin-proinsulin ratio - visit 8, 2 h after test meal / Insulin-proinsulin ratio - visit 8, Fasting / C-peptide - visit 8, 2 h after test meal / C-peptide - visit 8, Fasting / Insulin - visit 8, 2 h after test meal / Insulin - visit 8, Fasting / Proinsulin - visit 8, 2 h after test meal / Proinsulin - visit 8, Fasting: mean (SD); for C-peptide - change, 2 h after test meal / C-peptide - change, Fasting / Insulin - change, 2 h after test meal / Insulin - change, Fasting / Proinsulin - change, 2 h after test meal / Proinsulin - change, Fasting / C-peptide - visit 8, 2 h after test meal / C-peptide - visit 8, Fasting / Insulin - visit 8, 2 h after test meal / Insulin - visit 8, Fasting / Proinsulin - visit 8, 2 h after test meal / Proinsulin - visit 8, Fasting: unit as in Table 4; for Insulin-C-peptide ratio - visit 8, 2 h after test meal / Insulin-C-peptide ratio - visit 8, Fasting / Proinsulin-C-peptide ratio - visit 8, 2 h after test meal / Proinsulin-C-peptide ratio - visit 8, Fasting / HOMA - visit 8 / Insulin-proinsulin ratio - visit 8, 2 h after test meal / Insulin-proinsulin ratio - visit 8, Fasting / C-peptide - visit 8, 2 h after test meal / C-peptide - visit 8, Fasting / Insulin - visit 8, 2 h after test meal / Insulin - visit 8, Fasting / Proinsulin - visit 8, 2 h after test meal / Proinsulin - visit 8, Fasting: week 36
Description: (§1) Below is a list of the various target parameters: • Protection of the β-cells by early insulin therapy • C-Peptide (fasting and 2 h pp after TM) • Proinsulin (fasting and 2 h pp after TM) • Glycemic variability: • Glycemic load • Standard deviation (SD), • MAGE • HbA1c • Anti-inflammatory action of insulin: • Biomarkers of subclinical inflammation (fasting and 2 h pp) • hsCRP, • PAI-1, • Leukocyte count • Back-up samples for determining • MMP9 • ADMA • Adiponectin • Effect on endothelial function • Endothelial function at ball of thumb using laser Doppler (O2C) • Effect on renal function • Microalbuminuria (albumin/creatinine ratio) • Serum creatinine • Risk of hypoglycemia • Hypoglycemic intervals (time<3 mmol glucose) during CGM over 48 hours (day 2+3 after TM) • Free fatty acids
Test meal: On the morning of the 2nd day of the CGM, there is a standardized test meal in the trial center. This test meal (TM) consists of 95 g of whole-wheat bread, 20 g of margarine, 25 g of fruit preserves, 25 g of cheese, 200 ml of orange juice, 200 ml of milk mix with banana, strawberry or cocoa with a total of 560 Kcal. Blood is taken from the patient prior to the TM (after night-time fasting period of at least 8 hours). Subsequently, the TM should be eaten within 15 min. From the 1st bite, the time is measured, and after 2 h have elapsed, a 2nd blood collection is performed. During the TM and during the two hours thereafter, the patient should move as little as possible so as not to falsify the monitoring.
• HbA1c chromatographically by HLPC (device: TOSOH A1c) • Plasma glucose by enzymatic UV test HK (device: Selectra) • Creatinine in urine by PAP test (enzyme-photometrically) (device: Selectra) • Albumin in urine (spontaneous) by immunoturbidimetric method (device: Selectra) • Microalbuminuria (calculated: albumin/creatinine ratio) • Serum creatinine enzyme-photometrically by means of creatinine PAP test (device: Selectra) • ALAT, ASAT by optimized UV method according to IFCC (device: Selectra) • Insulin by ELISA (solid-phase enzyme immunoassay; device: Anthos) • C-peptide by ELISA (solid-phase enzyme immunoassay; device: Anthos) • Proinsulin (intact) (solid-phase enzyme immunoassay; device: Anthos) • Triglycerides by GPO-PAP method (device: Selectra) • HDL cholesterol by enzymatic test (device: Selectra) • LDL cholesterol by enzymatic test (device: Selectra) • Free fatty acids by photometric method (NEFA) (device: Selektra) • hsCRP by immunoturbidimetric method (device: Selectra) • PAI-1 (plasminogen activator inhibitor active antigen) bioimmunoassay • Leukocyte count by electronic counting • Pregnancy test (urine dipstick)
In the study in the previous examples, 75 patients (45 men, 30 women, mean age: 60.7±9.2 years) were examined, whose first diagnosis of type 2 diabetes dated back to less than 5 years and whose HbA1c level was between 6.5 and 8.5%. The patients were treated with either metformin (MET, 1000 mg b.i.d. (n=3)) or insulin glargine (GLA) q.d. just before bedtime (n=3). The insulin dose was adjusted for a target plasma glucose concentration (FPG) of ≦5.6 mmol/L according to a standardized titration algorithm. At the start and end of the study, the HbA1c level and the plasma glucose, proinsulin and C-peptide concentrations were determined. […] All the patients received a standardized test meal on the second day of the continuous glucose monitoring for comparison of the interindividual postprandial (pp) glucose excursions.

type 2 diabetes patients [3] = settings: cited from earlier work
type 2 diabetes patients [4] = assay: Pilot study with insulin glargine with a CGMS; format: in vivo, human; settings: compared to metformin
[5] = human, in vivo
Description: as §2, §3

type 2 diabetes patients [6] = settings: background statement; cited from earlier work
type 2 diabetes patients [7] = assay: Hypoglycemic events and low interstitial glucose periods during CGM; format: in vivo, human; settings: early treatment with GLA vs. MET
Description: as §1, with “acids […]” for “acids”

type 2 diabetes patients [8] = settings: ORIGIN-CGMS substudy, cited from earlier work
[9] = per protocol, change visit 1 to visit 8, mean (SD), unit as in Table 4

CN(C)C(=N)N=C(N)N [Metformin]
Abdomen - visit 8 ([1]; abdominal circumference, per protocol, week 36, mean (SD), unit as in Table 4): 100.5 (13.7) cm | Hip - 8th visit ([1]; hip measurement, per protocol, week 36, mean (SD), unit as in Table 4): 108.0 (11.6) cm | weight loss ([1]; over the study, vs. GLA p<0.001): 3.0 ± 4.3 kg | Abdomen - change [1, 9]: −2.0 (4.1) cm | BMI - change [1, 9]: 1.0 (1.4) kg/m^2 | Hip - change [1, 9]: −1.6 (4.1) cm | BMI - visit 8 ([1]; per protocol, week 36, mean (SD), unit as in Table 4): 29.3 (5.3) kg/m^2 | ratio of proinsulin to C-peptide (type 2 diabetes patients [2]): significant reduction | Insulin-C-peptide ratio - change, 2 h after test meal (type 2 diabetes patients [2]): −38956.8 | Insulin-C-peptide ratio - change, Fasting (type 2 diabetes patients [2]): −25386.1 | Proinsulin-C-peptide ratio - change, 2 h after test meal (type 2 diabetes patients [2]): −1668.7 | Proinsulin-C-peptide ratio - change, Fasting (type 2 diabetes patients [2]): −1386.3 | HOMA - change (type 2 diabetes patients [2]): 4.4 (19.5) | Insulin-proinsulin ratio - change, 2 h after test meal (type 2 diabetes patients [2]): 3.0 (8.4) | Insulin-proinsulin ratio - change, Fasting (type 2 diabetes patients [2]): 2.9 (7.6) | C-peptide - change, 2 h after test meal (type 2 diabetes patients [2]): −0.1 (2.0) nmol/l | C-peptide - change, Fasting (type 2 diabetes patients [2]): −0.3 (0.8) nmol/l | Insulin - change, 2 h after test meal (type 2 diabetes patients [2]): −11.1 (30.2) mU/l | Insulin - change, Fasting (type 2 diabetes patients [2]): −2.7 (3.6) mU/l | Proinsulin - change, 2 h after test meal (type 2 diabetes patients [2]): −6.9 (14.5) pmol/l | Proinsulin - change, Fasting (type 2 diabetes patients [2]): −3.2 (4.2) pmol/l | Insulin-C-peptide ratio - visit 8, 2 h after test meal (type 2 diabetes patients [2]): 41915.2 | Insulin-C-peptide ratio - visit 8, Fasting (type 2 diabetes patients [2]): 25456.9 | Proinsulin-C-peptide ratio - visit 8, 2 h after test meal (type 2 diabetes patients [2]): 2458.1 | Proinsulin-C-peptide ratio - visit 8, Fasting (type 2 diabetes patients [2]): 2142.4 | HOMA - visit 8 (type 2 diabetes patients [2]): 56.3 (34.5) | Insulin-proinsulin ratio - visit 8, 2 h after test meal (type 2 diabetes patients [2]): 24.7 (27.1) | Insulin-proinsulin ratio - visit 8, Fasting (type 2 diabetes patients [2]): 16.7 (17.4) | C-peptide - visit 8, 2 h after test meal (type 2 diabetes patients [2]): 7.9 (3.4) nmol/l | C-peptide - visit 8, Fasting (type 2 diabetes patients [2]): 2.7 (1.1) nmol/l | Insulin - visit 8, 2 h after test meal (type 2 diabetes patients [2]): 50.8 (39.7) mU/l | Insulin - visit 8, Fasting (type 2 diabetes patients [2]): 10.0 (6.0) mU/l | Proinsulin - visit 8, 2 h after test meal (type 2 diabetes patients [2]): 20.4 (19.9) pmol/l | Proinsulin - visit 8, Fasting (type 2 diabetes patients [2]): 5.8 (4.6) pmol/l | patients additionally receiving sulfonylureas or other combinations with oral antidiabetics (type 2 diabetes patients [3]; after one to two years, UK-PDS and DIG study): over 50% | patients with stomach complaints, disturbances in appetite and, very rarely, allergies (type 2 diabetes patients [3]; background statement): approximately 10% | cases in which not tolerated (type 2 diabetes patients [3]; reference [17]): approximately 15%

Insulin glargine
ratio of proinsulin to C-peptide (type 2 diabetes patients [2]): significant reduction | beta-cell function (type 2 diabetes patients [2]; early treatment, compared to standard treatment with MET): improvement in beta-cell function | Insulin-C-peptide ratio - change, 2 h after test meal (type 2 diabetes patients [2]): −24587.4 | Insulin-C-peptide ratio - change, Fasting (type 2 diabetes patients [2]): 46799.3 | Proinsulin-C-peptide ratio - change, 2 h after test meal (type 2 diabetes patients [2]): −2496.6 | Proinsulin-C-peptide ratio - change, Fasting (type 2 diabetes patients [2]): −1174.8 | HOMA - change (type 2 diabetes patients [2]): 77.2 (98.0) | Insulin-proinsulin ratio - change, 2 h after test meal (type 2 diabetes patients [2]): 8.2 (9.4) | Insulin-proinsulin ratio - change, Fasting (type 2 diabetes patients [2]): 16.4 (12.4) | C-peptide - change, 2 h after test meal (type 2 diabetes patients [2]): −0.6 (2.4) nmol/l | C-peptide - change, Fasting (type 2 diabetes patients [2]): −1.2 (1.1) nmol/l | Insulin - change, 2 h after test meal (type 2 diabetes patients [2]): 6.5 (38.4) mU/l | Insulin - change, Fasting (type 2 diabetes patients [2]): 2.7 (6.7) mU/l | Proinsulin - change, 2 h after test meal (type 2 diabetes patients [2]): −11.1 (26.8) pmol/l | Proinsulin - change, Fasting (type 2 diabetes patients [2]): −7.6 (10.8) pmol/l | Insulin-C-peptide ratio - visit 8, 2 h after test meal (type 2 diabetes patients [2]): 59822.8 | Insulin-C-peptide ratio - visit 8, Fasting (type 2 diabetes patients [2]): 80748.4 | Proinsulin-C-peptide ratio - visit 8, 2 h after test meal (type 2 diabetes patients [2]): 3578.2 | Proinsulin-C-peptide ratio - visit 8, Fasting (type 2 diabetes patients [2]): 3537.8 | HOMA - visit 8 (type 2 diabetes patients [2]): 127.9 (99.3) | Insulin-proinsulin ratio - visit 8, 2 h after test meal (type 2 diabetes patients [2]): 20.7 (11.8) | Insulin-proinsulin ratio - visit 8, Fasting (type 2 diabetes patients [2]): 24.5 (11.7) | C-peptide - visit 8, 2 h after test meal (type 2 diabetes patients [2]): 6.7 (3.1) nmol/l | C-peptide - visit 8, Fasting (type 2 diabetes patients [2]): 1.6 (0.9) nmol/l | Insulin - visit 8, 2 h after test meal (type 2 diabetes patients [2]): 62.6 (51.8) mU/l | Insulin - visit 8, Fasting (type 2 diabetes patients [2]): 14.6 (8.8) mU/l | Proinsulin - visit 8, 2 h after test meal (type 2 diabetes patients [2]): 26.8 (29.0) pmol/l | Proinsulin - visit 8, Fasting (type 2 diabetes patients [2]): 5.4 (5.0) pmol/l | control of postprandial hyperglycemia (type 2 diabetes patients [4]): improved control of postprandial hyperglycemia compared to metformin | Abdomen - change [5]: 1.1 (3.7) cm | Abdomen - visit 8 [5]: 104.3 (10.7) cm | BMI - change [5]: −0.5 (1.3) kg/m^2 | BMI - visit 8 [5]: 29.9 (4.1) kg/m^2 | Hip - 8th visit [5]: 108.6 (9.4) cm | Hip - change [5]: 1.6 (4.1) cm | weight gained [5]: 1.5 ± 3.8 kg | serious adverse reactions (type 2 diabetes patients [6]): without serious adverse reactions such as severe hypoglycemias | stable HbA1c level achieved (type 2 diabetes patients [6]): around 6% | number of hypoglycemic events (type 2 diabetes patients [7]): no rise in the number of hypoglycemic events | difference in the AUC TM for BG vs. standard treatment (predominantly metformin therapy) (type 2 diabetes patients [8]): 15% | difference in the AUC TM for BG vs. standard treatment (predominantly metformin therapy) (type 2 diabetes patients [8]; standard deviation 179): 127 mmol*120 min
